Assay results published in US20040259806A1 (priority 2001, published 2004).

Tests used:
[1] = tested on: IL-2; assay: IL-2 production by Con A stimulated spleen cells (CTLL-2 assay); format: in vivo, mice; conditions: 4 days after therapy; Group 7 (0.1 ìg/kg ip) compared to Group 3 (isoniazid control); Con A stimulated spleen cells
Procedure: In RPMI-1640, spleen cells were diluted to a concentration of 10^7/ml with 10% fetal calf serum, 2 mM L-glutamine and 80 ìg/ml gentamycin. A 100 ìl cell suspension was added to each well of a 96-well culture plate and cytokine production was induced by Con A at a final concentration of 2.5 ìg/ml. A control well included RPMI-1640. For 24 hours, cells were incubated at 37° C. and humidified in 5% CO2. Following incubation, […] of supernatant was removed from each well and stored at −70° C.
In order to determine the IL-2 concentration in cell culture supernatants, the CTLL-2 IL-2 dependent cell line was used. CTLL-IL-2 cells were washed twice in RPMI-1640 and counted with a Goriaev hemocytometer. Supernatants were diluted in 96-well culture plates at dilutions of 1:5, 1:15, 1:45 and 1:135 in a volume of 100 il. IL-2 standard dilutions were also prepared. Cells were diluted to 2×10^5/ml in RPMI-1640 with 10% inactivated fetal calf serum, 2 mM L-glutamine, 80 ìg/ml gentamycin. The 100 ìl suspension was added to each well of the culture plate and incubated for 48 h at 37° C. in 5% CO2 humidity. Ten ìl of 5 i Ci/ml ^3H-thymidine was added to each well 16 h before the end of incubation. Following incubation, the cells were harvested on filters through the use of a semi-automated harvester and samples were counted in a liquid scintillation counter.

[2] = tested on: M. bovis 8; format: in vivo, mice
[3] = tested on: spleen cells; assay: Spleen cell proliferation (Con A, LPS, tuberculin) from treated infected mice; format: in vivo; conditions: after 24 days; Group 3 the isoniazid control group
Procedure: Spleens from mice were harvested aseptically, homogenized in RPMI-1640 medium (Biolot, Russia) and filtered through two layers of sterile gauze. Erythrocytes were lysed in 0.83% percent ammonium chloride solution after centrifugation of the homogenate. Spleen cells were washed twice with RPMI-1640 with 2 mM L-glutamine and […] gentamycin (Sigma, St. Louis, Mo.), then counted using a Goriaev hemocytometer.
Spleen cells and thymic cells were isolated as described above. In vitro, thymic cells were diluted to 10^7/ml in RPMI-1640 with 2 mM L-glutamine, 80 ìg/ml gentamycin and 4% heat-inactivated fetal calf serum (Sigma, St. Louis, Mo.). Spleen cells were diluted to 3×10^6/ml in RPMI-1640 with 2 mM L-glutamine, 80 ìg/ml gentamycin and 20% inactivated fetal calf serum. 0.5 ìg/ml Concanavalin A (Con A, Sigma, St. Louis, Mo.) was used to stimulate thymic cell proliferation. For spleen cell proliferation, 0.5 ìg/ml Con A, 10 ìg/ml lipopolysaccharide (Sigma, St. Louis, Mo.), and 50 ìg/ml tuberculin purified protein derivative (PPD) were utilized. The assay was carried out in 96-well plates and cell cultures were incubated for 72 hours, or 96 hours if tuberculin was used, at 37° C. in humidified 5% CO2, then pulsed with 5 ìl Ci/ml ^3H-thymidine overnight (approximately 16 h) and harvested on filters using a semi-automated harvester (Titertek™, Flow Laboratories, Norway). Filters were dried and proliferation calculated by ^3H-thymidine incorporation by counting samples in a liquid scintillation counter (LKB 1217 Racketa, Wallace, Sweden). Data was expressed in impulses per minute.

[4] = tested on: peritoneal macrophages; assay: Phagocytosis and killing of Saccharomyces cerevisiae by peritoneal macrophages of treated infected mice; format: in vivo
Procedure: In order to study phagocytosis, peritoneal macrophages were plated at a concentration of 10^6 cells per Petri dish and media including 10^7 Saccharomyces cerevisiae cells, opsonized by mice serum was added. Results were evaluated using the Mann-Whitney test. Phagocytic activity was calculated after determination of percentage of macrophages involved in phagocytes. The phagocytic index was determined by calculating the average number of yeast phagocytosed per one cell. Killing activity was resolved by the number of yeast digested by macrophages after 1.5 h of incubation. Finally, the killing index was determined as follows: [formula]

[5] = 24 days after end of therapy, Group 7 (0.1 ìg/kg ip) versus Group 3 (isoniazid control)

NNC(=O)c1ccncc1 [isoniazid, isonicotinic acid hydrazide, reference compound]
IL-2 production [1]: 16.6±2.6 U/ml
growth of M bovis cultured from spleens [2, 5]: 275±14.1 CFU
lung weight index [2, 5]: 1.07±0.23
spleen weight index [2, 5]: 1.94±0.31
increase in body weight ([2]; 24 days after end of therapy, Group 7 (SCV-07 0.1 ìg/kg ip, 5 injections, with isoniazid) versus Group 3 (isoniazid control)): 20.7%
lung damage index, difference to untreated mice (Group 2) ([2]; isoniazid alone (Group 3), 10 mg/kg subcutaneous, Day 28 of infection): no significant difference
spleen cell proliferative response (Con A and LPS) [3]: remained low
phagocytic killing ([4]; 24 days after treatment, Group 3 (isoniazid), 178.0 in uninfected mice, p=0.05): 62.0 U
Phagocytosis ([4]; 24 days after treatment, isoniazid treatment group): returned to the level seen in uninfected mice
phagocytic activity ([4]; after 4 days, Group 7 (SCV-07 0.1 ìg/kg ip) compared to Group 3 (isoniazid control), p≦0.05, 64.2% in uninfected mice): 19.4%
killing ([4]; after 4 days, SCV-07 versus control, p≦0.05): 196.4
phagocytic activity ([4]; after 17 days, Group 6 (1.0 ìg/kg ip, 10 injections) versus Group 3 (isoniazid control)): 49.8%
phagocytic index ([4]; after 17 days, Group 6 (1.0 ìg/kg ip, 10 injections) versus Group 3, p=0.05): 4.91 U
